Results as given in patent US20220259196A1, “2-AMINOPYRIMIDINE COMPOUND AND USES THEREOF” (Shenyang Pharmaceutical University, priority 2019, published 2022).

Legend:
FLT3 = target: T1, FLT3 (Homo sapiens, UniProt P36888); assay: in vitro FLT3 kinase activity test, Mobility Shift Assay; type: biochemical; details: compound concentration 0.1 μM; read-out: Percentage of inhibition against FLT3 at 0.1 μM
T1 sequence (P36888 27-993): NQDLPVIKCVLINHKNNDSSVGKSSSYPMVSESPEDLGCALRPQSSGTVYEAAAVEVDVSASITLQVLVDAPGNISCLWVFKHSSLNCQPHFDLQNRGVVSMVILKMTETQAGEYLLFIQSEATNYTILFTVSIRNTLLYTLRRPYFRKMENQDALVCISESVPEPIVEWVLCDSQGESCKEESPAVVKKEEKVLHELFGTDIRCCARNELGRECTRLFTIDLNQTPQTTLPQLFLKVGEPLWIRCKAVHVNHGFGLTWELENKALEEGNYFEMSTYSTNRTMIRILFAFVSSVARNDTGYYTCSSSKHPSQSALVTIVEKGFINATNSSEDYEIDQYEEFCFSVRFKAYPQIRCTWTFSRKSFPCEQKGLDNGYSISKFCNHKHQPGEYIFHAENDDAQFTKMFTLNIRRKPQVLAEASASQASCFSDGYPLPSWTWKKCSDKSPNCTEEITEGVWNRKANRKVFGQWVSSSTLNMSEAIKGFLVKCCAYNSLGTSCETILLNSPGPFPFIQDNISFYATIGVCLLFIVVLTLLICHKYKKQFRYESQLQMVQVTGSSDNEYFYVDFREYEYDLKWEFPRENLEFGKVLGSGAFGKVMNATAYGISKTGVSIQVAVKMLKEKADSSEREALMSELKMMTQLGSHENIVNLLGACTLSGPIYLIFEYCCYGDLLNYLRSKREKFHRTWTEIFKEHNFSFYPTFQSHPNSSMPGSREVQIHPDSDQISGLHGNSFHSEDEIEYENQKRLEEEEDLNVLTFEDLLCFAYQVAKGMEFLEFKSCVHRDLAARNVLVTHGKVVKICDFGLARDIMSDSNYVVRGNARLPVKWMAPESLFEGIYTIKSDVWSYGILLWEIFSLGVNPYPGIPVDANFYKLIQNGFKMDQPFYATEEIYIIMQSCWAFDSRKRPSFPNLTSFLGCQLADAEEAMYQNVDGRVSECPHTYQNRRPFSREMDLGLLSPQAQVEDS
Protocol: (§1) The in vitro JAK2 and FLT3 kinase activity test was performed on the compounds of the 2-aminopyrimidine backbone of the above formula I (concentration 0.1 μM) according to the present invention using Mobility Shift Assay.
(§2) The kinase buffer was composed of 50 mM HEPEs (pH 7.5) and 0.0015% BRIJ-35. The stop buffer contained a mixture of 100 mM HEPES (pH 7.5), 0.015% BRIJ-35, 0.2% coating reagent #3 and 50 mM EDTA. The compound to be tested was diluted with 100% DMSO to 50 times the highest concentration required in the reaction. The dilution of compound to be tested (100 μL) was transferred to the wells of a 96-well plate. […] was added to two wells of the plate as a control group and the plate was marked as the source plate. 10 μL of compound was transferred from the source plate to a new 96-well plate to prepare an intermediate plate. In the intermediate plate, an additional 90 μL of kinase buffer was added to each well. The intermediate plate was shaken for 10 minutes, and then 5 μL of each well of the 96-well intermediate plate was copied to a 384-well plate as an analysis plate. The prepared enzyme solution was added to each well of the 384-well plate, then incubated at room temperature for 10 minutes, and then 10 μL of the prepared peptide solution (FAM-labeled peptide and ATP in kinase-based buffer) was added. The sample was incubated at 28° C. for 1 hours, and then 25 μL of buffer was added. The conversion data from the Caliper program was copied and converted to the inhibition rate.
(§3) Inhibition rate (%)=(max−conversion)/(max−min)×100.

JAK2 = JAK2 (Homo sapiens, UniProt O60674); assay: in vitro JAK2 kinase activity test, Mobility Shift Assay; type: biochemical; details: compound concentration 0.1 μM; read-out: Percentage of inhibition against JAK2 at 0.1 μM
Protocol: as §1, with “Assay. The control compounds Pacritinib and Fedratinib were prepared by our research group.” for “Assay.”
as §2, §3

Chain of JAK2 (O60674 whole entry): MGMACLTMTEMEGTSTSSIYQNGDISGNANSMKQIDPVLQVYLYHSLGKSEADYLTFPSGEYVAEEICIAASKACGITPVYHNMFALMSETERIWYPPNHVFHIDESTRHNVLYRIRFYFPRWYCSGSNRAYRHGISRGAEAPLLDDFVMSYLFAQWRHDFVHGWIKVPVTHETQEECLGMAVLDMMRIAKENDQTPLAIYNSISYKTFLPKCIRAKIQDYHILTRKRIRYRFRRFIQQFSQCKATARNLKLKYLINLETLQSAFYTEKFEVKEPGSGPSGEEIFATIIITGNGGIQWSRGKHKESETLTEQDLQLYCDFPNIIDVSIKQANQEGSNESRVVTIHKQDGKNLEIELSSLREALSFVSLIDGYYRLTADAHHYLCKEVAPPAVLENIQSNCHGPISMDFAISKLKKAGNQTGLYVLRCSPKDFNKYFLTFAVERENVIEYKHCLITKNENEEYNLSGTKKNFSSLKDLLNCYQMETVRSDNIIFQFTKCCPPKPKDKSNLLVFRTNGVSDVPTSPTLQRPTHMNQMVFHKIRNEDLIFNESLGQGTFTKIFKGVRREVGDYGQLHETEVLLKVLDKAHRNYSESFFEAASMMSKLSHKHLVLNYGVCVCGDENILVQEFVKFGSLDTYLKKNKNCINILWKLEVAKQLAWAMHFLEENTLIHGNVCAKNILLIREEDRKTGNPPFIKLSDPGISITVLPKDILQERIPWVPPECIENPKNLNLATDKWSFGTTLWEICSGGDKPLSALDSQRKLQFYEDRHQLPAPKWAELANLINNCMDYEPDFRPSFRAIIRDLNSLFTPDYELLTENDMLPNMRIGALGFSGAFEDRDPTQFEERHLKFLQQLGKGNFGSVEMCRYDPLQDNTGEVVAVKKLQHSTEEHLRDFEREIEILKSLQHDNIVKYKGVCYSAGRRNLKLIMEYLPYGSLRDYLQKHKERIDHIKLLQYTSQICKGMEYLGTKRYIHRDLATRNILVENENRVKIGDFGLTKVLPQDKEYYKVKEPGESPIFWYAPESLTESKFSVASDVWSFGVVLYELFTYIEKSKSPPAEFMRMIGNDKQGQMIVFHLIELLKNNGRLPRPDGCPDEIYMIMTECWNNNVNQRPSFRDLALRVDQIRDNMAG

inhibition at 0.1 µM (FLT3) [%] | inhibition at 0.1 µM (JAK2) [%] | SMILES
21.7 | 48.7 | COc1ccc(NC(=O)N2CCN(c3ccnc(Nc4ccc(N5CCOCC5)cc4)n3)CC2)cc1 [Example 1, N-(4-methoxyphenyl)-4-(2-{[4-(morpholin-4-yl)phenyl]amino}pyrimidin-4-yl)piperazine-1-carboxamide]
30.5 | 54.3 | O=C(Nc1ccc(OC(F)(F)F)cc1)N1CCN(c2ccnc(Nc3ccc(N4CCOCC4)cc3)n2)CC1 [Example 2, N-(4-trifluoromethoxyphenyl)-4-(2-{[4-(morpholin-4-yl)phenyl]amino}pyrimidin-4-yl)piperazine-1-carboxamide]
27.4 | 53.3 | CCc1ccc(NC(=O)N2CCN(c3ccnc(Nc4ccc(N5CCOCC5)cc4)n3)CC2)cc1 [Example 3, N-(4-ethylphenyl)-4-(2-{[4-(morpholin-4-yl)phenyl]amino}pyrimidin-4-yl)piperazine-1-carboxamide]
30.8 | 53.7 | O=C(Nc1ccccc1)N1CCN(c2ccnc(Nc3ccc(N4CCOCC4)cc3)n2)CC1 [Example 4, N-phenyl-4-(2-{[4-(morpholin-4-yl)phenyl]amino}pyrimidin-4-yl)piperazine-1-carboxamide]
62.8 | 64.4 | COC(=O)c1ccc(NC(=O)N2CCN(c3ccnc(Nc4ccc(N5CCOCC5)cc4)n3)CC2)cc1 [Example 5, N-(4-methoxyformylphenyl)-4-(2-{[4-(morpholin-4-yl)phenyl]amino}pyrimidin-4-yl)piperazine-1-carboxamide]
84.4 | 79.3 | O=C(Nc1ccc([N+](=O)[O-])cc1)N1CCN(c2ccnc(Nc3ccc(N4CCOCC4)cc3)n2)CC1 [Example 7, N-(4-nitrophenyl)-4-(2-{[4-(morpholin-4-yl)phenyl]amino}pyrimidin-4-yl)piperazine-1-carboxamide]
70.3 | 63.7 | N#Cc1ccc(NC(=O)N2CCN(c3ccnc(Nc4ccc(N5CCOCC5)cc4)n3)CC2)cc1F [Example 8, N-(4-cyano-3-fluorophenyl)-4-(2-{[4-(morpholin-4-yl)phenyl]amino}pyrimidin-4-yl)piperazine-1-carboxamide]
71.2 | 76.3 | NC(=O)c1ccc(NC(=O)N2CCN(c3ccnc(Nc4ccc(N5CCOCC5)cc4)n3)CC2)cc1 [Example 10, N-(4-carbamoylphenyl)-4-(2-{[4-(morpholin-4-yl)phenyl]amino}pyrimidin-4-yl)piperazine-1-carboxamide]
35.8 | 68.1 | CNC(=O)c1ccc(NC(=O)N2CCN(c3ccnc(Nc4ccc(N5CCOCC5)cc4)n3)CC2)cc1 [Example 11, N-(4-methylcarbamoylphenyl)-4-(2-{[4-(morpholin-4-yl)phenyl]amino}pyrimidin-4-yl)piperazine-1-carboxamide]
69.7 | 76 | NS(=O)(=O)c1ccc(NC(=O)N2CCN(c3ccnc(Nc4ccc(N5CCOCC5)cc4)n3)CC2)cc1 [Example 12, N-(4-aminosulfonylphenyl)-4-(2-{[4-(morpholin-4-yl)phenyl]amino}pyrimidin-4-yl)piperazine-1-carboxamide]
70.8 | 73 | CC(=O)Nc1ccc(NC(=O)N2CCN(c3ccnc(Nc4ccc(N5CCOCC5)cc4)n3)CC2)cc1 [Example 13, N-(4-acetylaminophenyl)-4-(2-{[4-(morpholin-4-yl)phenyl]amino}pyrimidin-4-yl)piperazine-1-carboxamide]
85 | 84 | CN1CCN(c2ccc(Nc3nccc(N4CCN(C(=O)Nc5ccc(C(N)=O)cc5)CC4)n3)cc2)CC1 [Example 15, N-(4-carbamoylphenyl)-4-(2-{[4-(4-methylpiperazin-1-yl)phenyl]amino}pyrimidin-4-yl)piperazine-1-carboxamide]
69 | 45 | CC(=O)c1ccc(NC(=O)N2CCN(c3ccnc(Nc4ccc(OCCN5CCCC5)cc4)n3)CC2)cc1 [Example 16, N-(4-acetylphenyl)-4-[2-({4-[2-(pyrrolidin-1-yl)ethoxy]phenyl}amino)pyrimidin-4-yl]piperazine-1-carboxamide]
54 | 53 | CC(=O)c1ccc(NC(=O)N2CCN(c3ccnc(Nc4ccc(N5CCC(C)CC5)cc4)n3)CC2)cc1 [Example 17, N-(4-acetylphenyl)-4-(2-{[4-(4-methylpiperidin-1-yl)phenyl]amino}pyrimidin-4-yl)piperazine-1-carboxamide]
70.6 | 61.7 | CC(=O)c1ccc(NC(=O)N2CCN(c3ccnc(Nc4ccc(OCCN5CCOCC5)cc4)n3)CC2)cc1 [Example 18, N-(4-acetylphenyl)-4-[2-({4-[2-(morpholin-4-yl)ethoxy]phenyl}amino)pyrimidin-4-yl]piperazine-1-carboxamide]
70.9 | 60.9 | CC(=O)c1ccc(NC(=O)N2CCN(c3ccnc(Nc4ccc(OCCCN5CCOCC5)cc4)n3)CC2)cc1 [Example 19, N-(4-acetylphenyl)-4-[2-({4-[3-(morpholin-4-yl)propoxy]phenyl}amino)pyrimidin-4-yl]piperazine-1-carboxamide]
68 | 44 | CC(=O)c1ccc(NC(=O)N2CCN(c3nc(Nc4ccc(N5CCOCC5)cc4)nc4ccsc34)CC2)cc1 [Example 24, N-(4-acetylphenyl)-4-(2-{[4-(morpholin-4-yl)phenyl]amino}thieno[3,2-d]pyrimidin-4-yl)piperazine-1-carboxamide]
67.9 | 22.8 | CC(=O)c1ccc(NC(=O)N2CCN(c3nc(Nc4ccc(N5CCOCC5)cc4)ncc3N)CC2)cc1 [Example 27, N-(4-acetylphenyl)-4-(5-amino-2-{[4-(morpholin-4-yl)phenyl]amino}pyrimidin-4-yl)piperazine-1-carboxamide]
57.3 | 69.3 | CC(=O)c1ccc(NC(=O)N2CCC(Nc3nc(Nc4ccc(N5CCOCC5)cc4)ncc3C)C2)cc1 (stereo not drawn) [Example 28, N-(4-acetylphenyl)-3-[(5-methyl-2-{[4-(morpholin-4-yl)phenyl]amino}pyrimidin-4-yl)amino]pyrrolidine-1-carboxamide]
75.7 | 57.4 | CC(=O)c1ccc(NC(=O)NC2CCN(c3nc(Nc4ccc(N5CCOCC5)cc4)ncc3C)C2)cc1 (stereo not drawn) [Example 29, 1-(4-acetylphenyl)-3-[1-(5-methyl-2-{[4-(morpholin-4-yl)phenyl]amino}pyrimidin-4-yl)pyrrolidin-3-yl]urea]
50 | 21.9 | CC(=O)c1ccc(NC(=O)NC2CN(c3nc(Nc4ccc(N5CCOCC5)cc4)ncc3C)C2)cc1 [Example 31, 1-(4-acetylphenyl)-3-[1-(5-methyl-2-{[4-(morpholin-4-yl)phenyl]amino}pyrimidin-4-yl)azetidin-3-yl]urea]
